The values that follow come from US8426437B2, “Pyrroloquinoline derivatives and their use as protein kinases inhibitors” (Pierre Fabre Medicament, priority 2005, dated 2013).

The assay addresses T1, RET (Homo sapiens, UniProt P07949).
T1 construct: purchased Upstate 14-570MG
The assay is described as follows: Inhibition of RET kinase activity, recombinant RET method (Kinase-Glo). The settings on record: RET 2 μg/ml, poly-EY4 substrate, 20 μM ATP, two hours at 30° C. The class given is biochemical. Here is the method: The inhibition of the kinase activity of the compounds of the invention is assessed by measuring their IC50 on RET.
where: • Y is the value of the luminescence • X is the logarithm of the concentration of the compound • Bottom is the minimum Y value • Top is the maximum Y value • LogIC50 is the value of X when Y is 50% from Top—Bottom.
The quantity of RET required is 2 μg/ml.
The following buffer is used for dilution of RET: 20 mM MOPS/NaOH pH7.0, 1 mM EDTA, 5% glycerol, 0.01% Brij35 (Sigma B4184), 0.1% 2-mercaptoethanol, 1 mg/ml BSA (Sigma A3059-10G).
The dilution of the compounds of the invention is distributed so as to obtain a scale of final concentrations between 10 nM and 30 μM.
After incubation of the reaction mixture for two hours at 30° C., the level of ATP that remains is assayed using the Kinase-Glo Luminescent Kinase Assay (Promega #V6712) according to the conditions recommended by the supplier. The luminescence induced is read in a plate reader (Envision-Perkin Elmer).
For orientation: In Kinase-Glo more light means more ATP remaining.

T1 sequence (P07949 29-1114): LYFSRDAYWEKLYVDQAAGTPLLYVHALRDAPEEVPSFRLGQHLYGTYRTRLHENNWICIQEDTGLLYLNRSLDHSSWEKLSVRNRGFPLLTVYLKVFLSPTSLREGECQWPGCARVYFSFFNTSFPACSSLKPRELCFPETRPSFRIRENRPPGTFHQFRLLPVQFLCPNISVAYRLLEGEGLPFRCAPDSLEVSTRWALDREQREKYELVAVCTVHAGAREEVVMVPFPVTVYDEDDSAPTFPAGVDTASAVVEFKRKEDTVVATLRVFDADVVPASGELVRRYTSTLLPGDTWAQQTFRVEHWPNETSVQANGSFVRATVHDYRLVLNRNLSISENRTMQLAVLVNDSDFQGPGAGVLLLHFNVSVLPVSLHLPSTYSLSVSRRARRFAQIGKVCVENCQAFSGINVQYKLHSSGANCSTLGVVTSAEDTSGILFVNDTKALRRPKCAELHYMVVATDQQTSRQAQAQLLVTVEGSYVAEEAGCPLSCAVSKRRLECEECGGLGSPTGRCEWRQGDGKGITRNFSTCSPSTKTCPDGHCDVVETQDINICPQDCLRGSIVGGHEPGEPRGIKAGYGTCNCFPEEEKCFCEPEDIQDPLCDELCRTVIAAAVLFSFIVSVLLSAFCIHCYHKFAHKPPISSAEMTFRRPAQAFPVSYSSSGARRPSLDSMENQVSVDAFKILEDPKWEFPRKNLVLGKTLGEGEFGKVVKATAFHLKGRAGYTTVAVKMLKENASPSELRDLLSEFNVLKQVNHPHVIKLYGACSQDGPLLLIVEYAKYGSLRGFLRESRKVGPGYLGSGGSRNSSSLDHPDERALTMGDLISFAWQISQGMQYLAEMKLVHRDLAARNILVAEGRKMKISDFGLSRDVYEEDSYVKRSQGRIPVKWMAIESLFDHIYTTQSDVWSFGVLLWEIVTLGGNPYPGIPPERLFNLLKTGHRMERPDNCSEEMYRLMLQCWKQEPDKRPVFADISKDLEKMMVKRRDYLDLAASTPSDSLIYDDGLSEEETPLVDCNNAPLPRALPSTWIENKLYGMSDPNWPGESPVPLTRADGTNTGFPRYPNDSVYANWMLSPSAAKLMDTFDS

`CCOC(=O)c1c[nH]c2c(=O)[nH]c3ccc(NS(=O)(=O)c4ccc(Br)cc4)cc3c12` [Compound 46, 8-(4-Bromo-benzenesulfonylamino)-4-oxo-4,5-dihydro-3H-pyrrolo[2,3-c]quinoline-1-ethyl carboxylate]: the concentration for half-maximal inhibition (IC50) was in the range of 0.1 to 1 µM. Consider `CCOC(=O)c1c[nH]c2c(=O)[nH]c3ccc(NS(=O)(=O)c4ccc(C)cc4)cc3c12` [Compound 47, 4-Oxo-8-(4-toluenesulfonylamino)-4,5-dihydro-3H-pyrrolo[2,3-c]quinoline-1-ethyl carboxylate], for which the IC50 lay in the range of 0.1 to 1 µM.

For the molecule `CCOC(=O)c1c[nH]c2c(=O)[nH]c3ccc(NS(=O)(=O)c4cccc(C)c4)cc3c12` [Compound 48, 4-Oxo-8-(3-toluenesulfonylamino)-4,5-dihydro-3H-pyrrolo[2,3-c]quinoline-1-ethyl carboxylate], the IC50 fell in the range of 10 to 100 µM. In the case of `CCOC(=O)c1c[nH]c2c(=O)[nH]c3ccc(NS(=O)(=O)c4ccc(OC)cc4)cc3c12` [Compound 50, 8-(4-Methoxy-benzenesulfonylamino)-4-oxo-4,5-dihydro-3H-pyrrolo[2,3-c]quinoline-1-ethyl carboxylate] it was 1 to 10 µM; in that of `CCOC(=O)c1c[nH]c2c(=O)[nH]c3ccc(NS(=O)(=O)c4cccc(OC)c4)cc3c12` [Compound 51, 8-(3-Methoxy-benzenesulfonylamino)-4-oxo-4,5-dihydro-3H-pyrrolo[2,3-c]quinoline-1-ethyl carboxylate], 1 to 10 µM.

With `CCOC(=O)c1c[nH]c2c(=O)[nH]c3ccc(NS(=O)(=O)c4ccc(NC(C)=O)cc4)cc3c12` [Compound 52, 8-(4-Acetylamino-benzenesulfonylamino)-4-oxo-4,5-dihydro-3H-pyrrolo[2,3-c]quinoline-1-ethyl carboxylate], the half-inhibitory concentration (IC50) was 1 to 10 µM. In the case of `CCOC(=O)c1c[nH]c2c(=O)[nH]c3ccc(NS(=O)(=O)c4ccc([N+](=O)[O-])cc4)cc3c12` [Compound 53, 8-(4-Nitro-benzenesulfonylamino)-4-oxo-4,5-dihydro-3H-pyrrolo[2,3-c]quinoline-1-ethyl carboxylate] it was 0.1 to 1 µM. In the case of `CCOC(=O)c1c[nH]c2c(=O)[nH]c3ccc(NS(=O)(=O)c4ccc5ccccc5c4)cc3c12` [Compound 54, 8-(Naphthalene-2-sulfonylamino)-4-oxo-4,5-dihydro-3H-pyrrolo[2,3-c]quinoline-1-ethyl carboxylate] it was 10 to 100 µM.

For `CCOC(=O)c1c[nH]c2c(=O)[nH]c3ccc(NS(=O)(=O)c4ccc(C(C)=O)cc4)cc3c12` [Compound 55, 8-(4-Acetyl-benzenesulfonylamino)-4-oxo-4,5-dihydro-3H-pyrrolo[2,3-c]quinoline-1-ethyl carboxylate], the IC50 was 1 to 10 µM. With `CCOC(=O)c1c[nH]c2c(=O)[nH]c3ccc(NS(=O)(=O)c4ccc(Cl)s4)cc3c12` [Compound 57, 8-(5-Chloro-thiophene-2-sulfonylamino)-4-oxo-4,5-dihydro-3H-pyrrolo[2,3-c]quinoline-1-ethyl carboxylate], the concentration for half-maximal inhibition (IC50) lay within 0.1 to 1 µM.

Regarding `CCOC(=O)c1c[nH]c2c(=O)[nH]c3ccc(N(C)S(C)(=O)=O)cc3c12` [Compound 59, 8-(Methanesulfonyl-methyl-amino)-4-oxo-4,5-dihydro-3H-pyrrolo[2,3-c]quinoline-1-ethyl carboxylate], the IC50 was 0.1 to 1 µM. For `CCOC(=O)c1c[nH]c2c(=O)[nH]c3ccc(NC(=O)c4ccccc4)cc3c12` [Compound 60, 8-Benzoylamino-4-oxo-4,5-dihydro-3H-pyrrolo[2,3-c]quinoline-1-ethyl carboxylate], the 50% inhibitory concentration (IC50) lay within 1 to 10 µM.

As for `CCOC(=O)c1c[nH]c2c(=O)[nH]c3ccc(NC(C)=O)cc3c12` [Compound 61, 8-Acetylamino-4-oxo-4,5-dihydro-3H-pyrrolo[2,3-c]quinoline-1 ethyl carboxylate], the IC50 was 1 to 10 µM. For the molecule `CCOC(=O)c1c[nH]c2c(=O)[nH]c3ccc(N(C)C)cc3c12` [Compound 62, 8-Dimethylamino-4-oxo-4,5-dihydro-3H-pyrrolo[2,3-c]quinoline-1-ethyl carboxylate], the IC50 fell in the range of 1 to 10 µM. Under `CCOC(=O)/C=C/c1ccc2[nH]c(=O)c3[nH]cc(C(=O)OCC)c3c2c1` [Compound 65, 8-(2-Ethoxycarbonyl-vinyl)-4-oxo-4,5-dihydro-3H-pyrrolo[2,3-c]quinoline-1-ethyl carboxylate] stands 1 to 10 µM; under `CCOC(=O)c1c[nH]c2c(=O)[nH]c3c([N+](=O)[O-])cccc3c12` [Compound 67, 6-Nitro-4-oxo-4,5-dihydro-3H-pyrrolo[2,3-c]quinoline-1-ethyl carboxylate], 10 to 100 µM; under `CCOC(=O)c1c[nH]c2c(=O)[nH]c3ccc(/C=C/C(=O)NCc4ccccc4)cc3c12` [Compound 68, 8-(2-Benzylcarbamoyl-vinyl)-4-oxo-4,5-dihydro-3H-pyrrolo[2,3-c]quinoline-1-ethyl carboxylate], 1 to 10 µM. Under `CCOC(=O)c1c[nH]c2c(=O)[nH]c3ccc(/C=C/C(=O)NCCC(=O)OC)cc3c12` [Compound 69, 8-[2-(2-Methoxycarbonyl-ethylcarbamoyl)-vinyl]-4-oxo-4,5-dihydro-3H-pyrrolo[2,3-c]quinoline-1-ethyl carboxylate] stands 1 to 10 µM. In the case of `CCOC(=O)c1c[nH]c2c(=O)[nH]c3cc(OC)c(OC)cc3c12` [Compound 72, 7,8-Dimethoxy-4-oxo-4,5-dihydro-3H-pyrrolo[2,3-c]quinoline-1-ethyl carboxylate] it was 1 to 10 µM; in that of `COC(=O)c1c[nH]c2c(=O)[nH]c3ccccc3c12` [Compound 73, 4-Oxo-4,5-dihydro-3H-pyrrolo[2,3-c]quinoline-1-methyl carboxylate], 1 to 10 µM; in that of `O=C(OCc1ccccc1)c1c[nH]c2c(=O)[nH]c3ccccc3c12` [Compound 74, 4-Oxo-4,5-dihydro-3H-pyrrolo[2,3-c]quinoline-1-carboxylate benzyl], 1 to 10 µM. For `O=C(O)c1c[nH]c2c(=O)[nH]c3ccccc3c12` [Compound 75, 4-oxo-4,5-dihydro-3H-pyrrolo[2,3-c]quinoline-1-carboxylic acid], the IC50 lay in the range of 10 to 100 µM. In the case of `O=C(c1ccccc1)c1c[nH]c2c(=O)[nH]c3ccccc3c12` [Compound 76, 1-Benzoyl-3,5-dihydro-pyrrolo[2,3-c]quinolin-4-one] it was 1 to 10 µM. As to `CC(=O)c1c[nH]c2c(=O)[nH]c3ccccc3c12` [Compound 77, 1-Acetyl-3,5-dihydro-pyrrolo[2,3-c]quinolin-4-one], the IC50 fell in the range of 10 to 100 µM. For the molecule `CC(C)OC(=O)c1c[nH]c2c(=O)[nH]c3ccccc3c12` [Compound 78, 4-Oxo-4,5-dihydro-3H-pyrrolo[2,3-c]quinoline-1-carboxylate isopropyl], the IC50 was 1 to 10 µM. On to `CN(C)CCCNC(=O)c1c[nH]c2c(=O)[nH]c3ccccc3c12` [Compound 80, N-(3-Dimethylamino-propyl)-4-oxo-4,5-dihydro-3H-pyrrolo[2,3-c]quinoline-1-carboxamide], for which the IC50 lay within 10 to 100 µM. In the case of `COC(=O)CCNC(=O)c1c[nH]c2c(=O)[nH]c3ccccc3c12` [Compound 81, 3-[(4-Oxo-4,5-dihydro-3H-pyrrolo[2,3-c]quinoline-1-carbonyl)-amino]-methyl propanoate] it was 10 to 100 µM; in that of `O=C(NCC1CCCCC1)c1c[nH]c2c(=O)[nH]c3ccccc3c12` [Compound 82, N-(Cyclohexylmethyl)-4-oxo-4,5-dihydro-3H-pyrrolo[2,3-c]quinoline-1-carboxamide], 10 to 100 µM; in that of `O=C(NCc1ccccc1)c1c[nH]c2c(=O)[nH]c3ccccc3c12` [Compound 83, N-(Benzyl)-4-oxo-4,5-dihydro-3H-pyrrolo[2,3-c]quinoline-1-carboxamide], 10 to 100 µM. In the case of `O=C(NCCc1c[nH]c2ccccc12)c1c[nH]c2c(=O)[nH]c3ccccc3c12` [Compound 84, N-[2-(1H-Indol-3-yl)-ethyl]-4-oxo-4,5-dihydro-3H-pyrrolo[2,3-c]quinoline-1-carboxamide], the IC50 lay in the range of 10 to 100 µM. Under `O=C(NCCCO)c1c[nH]c2c(=O)[nH]c3ccccc3c12` [Compound 85, N-(3-Hydroxy-propyl)-4-oxo-4,5-dihydro-3H-pyrrolo[2,3-c]quinoline-1-carboxamide] stands 10 to 100 µM. Under `O=C(NCc1ccncc1)c1c[nH]c2c(=O)[nH]c3ccccc3c12` [Compound 86, N-(Pyridin-4-ylmethyl)-4-oxo-4,5-dihydro-3H-pyrrolo[2,3-c]quinoline-1-carboxamide] stands 10 to 100 µM; under `O=C(Nc1ccccc1)c1c[nH]c2c(=O)[nH]c3ccccc3c12` [Compound 87, N-(Phenyl)-4-oxo-4,5-dihydro-3H-pyrrolo[2,3-c]quinoline-1-carboxamide], 10 to 100 µM. In the case of `CNC(=O)c1c[nH]c2c(=O)[nH]c3ccccc3c12` [Compound 88, N-(Methyl)-4-oxo-4,5-dihydro-3H-pyrrolo[2,3-c]quinoline-1-carboxamide] it was 10 to 100 µM; in that of `CN(C)C(=O)c1c[nH]c2c(=O)[nH]c3ccccc3c12` [Compound 89, N,N-(Dimethyl)-4-oxo-4,5-dihydro-3H-pyrrolo[2,3-c]quinoline-1-carboxamide], 10 to 100 µM; in that of `NC(=O)c1c[nH]c2c(=O)[nH]c3ccccc3c12` [Compound 90, 4-Oxo-4,5-dihydro-3H-pyrrolo[2,3-c]quinoline-1-carboxamide], 10 to 100 µM.

Broadly, the IC50 is the concentration at which inhibition is half-maximal.
